Laboratory results published in PMC4055767, “Selective Chemical Inhibition of agr Quorum Sensing in Staphylococcus aureus Promotes Host Defense with Minimal Impact on Resistance” (PLoS Pathogens, 2014).

What was measured:
AgrA = target: T1, AgrA (Staphylococcus aureus, UniProt P0A0I7); assay: AgrA-dependent agr::P3 lux reporter in agr-null S. aureus ([…]), positive control; assay type: cell-based
T1 construct: plasmid-encoded AgrA (pCM63) in S. aureus Δagr reporter strain AH3048

[1] = target: AgrA (AgrAC, C-terminal DNA binding domain) (Staphylococcus aureus, UniProt P0A0I7); assay: EMSA with purified AgrAC and FAM-labeled […] bp DNA duplex; supported by AgrA-driven agr::P3 lux reporter in agr-null S. aureus
Chain of AgrA (AgrAC, C-terminal DNA binding domain) (P0A0I7 137-238): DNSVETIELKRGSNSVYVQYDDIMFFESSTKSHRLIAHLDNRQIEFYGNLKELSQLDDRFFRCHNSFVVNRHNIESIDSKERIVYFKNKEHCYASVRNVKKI

T1 sequence (P0A0I7 whole entry): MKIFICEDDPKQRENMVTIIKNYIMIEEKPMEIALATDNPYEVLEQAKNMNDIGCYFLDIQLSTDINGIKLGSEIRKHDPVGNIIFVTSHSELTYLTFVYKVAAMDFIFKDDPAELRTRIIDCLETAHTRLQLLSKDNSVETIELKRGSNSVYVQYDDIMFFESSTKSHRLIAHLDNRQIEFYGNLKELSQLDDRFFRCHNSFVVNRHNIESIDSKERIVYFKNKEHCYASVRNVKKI

SMILES | AgrA-dependent agr::P3 lux reporter in agr-null S. aureus (1.56-100 μM), positiv (AgrA) | IC50 [1] [µM]
O=C(O)c1cc(-c2ccc(F)cc2F)ccc1O [diflunisal] | diflunisal and 4-phenoxyphenol, compounds published by others as inhibitors of AgrAc DNA binding ability | –
CC(C)c1ccc(S(=O)(=O)c2n[nH]n3c2nc(=O)c2ccccc23)cc1 [savirin, 3-(4-propan-2-ylphenyl) sulfonyl-1H-triazolo [1,5-a] quinazolin-5-one] | – | 83
